Measured values from PMC5054527, “Mechanism of high affinity inhibition of the human urate transporter URAT1” (Scientific Reports, 2016).
Where a chain is given by its changes, count along the chain named. Where two headings read alike, the source gives them in different places.

Legend:
Assay in all cases: URAT1 uric acid transport activity assay
[1] = target: T1, r-N35S rURAT1 point mutant (Rattus norvegicus, UniProt Q3ZAV1, N35S); format: cell-based; conditions: for fold increased affinity of r-N35S compared to rURAT1: from IC50 values
T1 construct: expressed in transfected cells; host or cells: HEK-293T
T1 sequence (Q3ZAV1 1-553 N35S): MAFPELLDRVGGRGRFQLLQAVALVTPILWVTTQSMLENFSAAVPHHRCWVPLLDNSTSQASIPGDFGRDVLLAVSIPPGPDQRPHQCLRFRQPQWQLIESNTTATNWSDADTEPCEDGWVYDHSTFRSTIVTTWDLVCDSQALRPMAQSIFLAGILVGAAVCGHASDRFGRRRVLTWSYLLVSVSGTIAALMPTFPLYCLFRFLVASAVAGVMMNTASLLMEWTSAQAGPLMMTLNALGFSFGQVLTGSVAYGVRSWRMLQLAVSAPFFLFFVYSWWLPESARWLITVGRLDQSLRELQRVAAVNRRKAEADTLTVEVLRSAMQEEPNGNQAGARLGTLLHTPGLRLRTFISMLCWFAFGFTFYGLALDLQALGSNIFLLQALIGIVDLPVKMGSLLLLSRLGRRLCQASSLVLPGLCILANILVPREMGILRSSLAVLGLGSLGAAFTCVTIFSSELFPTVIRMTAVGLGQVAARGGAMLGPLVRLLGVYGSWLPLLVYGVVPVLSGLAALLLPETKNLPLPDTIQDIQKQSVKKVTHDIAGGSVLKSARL
How it was run: (§1)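 Rat URAT1 point or double mutants in pCMV6/neo were transiently transfected into cells and assayed the next day. Compounds were preincubated for 5 minutes, then 100 μM 14C-uric acid uptake was measured over 10 minutes in triplicate. IC50 came from four-parameter variable-slope nonlinear regression.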

r-h TM1-C URAT1 chimera = target: T2, r-h TM1-C URAT1 chimera (Rattus norvegicus, UniProt Q3ZAV1, L29M/N35S/P27S/T32C/V31L); format: cell-based, human/rat
T2 sequence (Q3ZAV1 1-553 P27S/L29M/V31L/T32C/N35S): T1 sequence (Q3ZAV1 1-553 N35S) with P27S, L29M, V31L, T32C
Text: hURAT1 (GenBank BC053348.1) and rURAT1 (NCBI NM_001034943.1) genes were purchased from Origene Technologies, Inc. and subcloned into pCMV6/neo using NotI, creating pCMV6/neo-hURAT1 and pCMV6/neo-rURAT1. Mutants were produced by polymerase chain reaction (PCR) or site-directed mutagenesis using the QuikChange Lightning Multi Site-Directed Mutagenesis Kit (Agilent Technologies). […] Detailed methods are provided in Supplementary Methods, and primers are listed in Supplementary Table 1. […] Residues in rURAT1 and hOAT1 that correspond to the residues in hURAT1 were identified from aligned protein sequences (Supplementary Fig. 1)[50].
DNA (10 μg) was mixed with 30 μl of DreamFect Gold (Boca Scientific) in 2 ml OptiMem (Life Technologies). After 20 minutes, 18 ml of media containing 2 × 10^7 cells in suspension was added and mixed, and 200 μl per well were plated onto white clear-bottomed poly-D-lysine coated 96-well plates (BD Biosciences). The cells were assayed the following day.
Compounds were serially diluted into assay buffer and added to the cells for 5 minutes prior to addition of radiolabelled uric acid substrate. URAT1-expressing cells were incubated with 100 μM ^14C-uric acid for 10 minutes. […] Each treatment was measured in triplicate.
Unlabelled uric acid was prepared at a 20 mM stock just prior to use in a solution containing 20 mM dibasic potassium phosphate and 20 mM potassium hydroxide.
Nonlinear regression analyses using GraphPad Prism software were used to calculate the potency of URAT1 inhibitors (IC50 values) from log (inhibitor) versus response - variable slope (four parameters) equations. Statistical significance was assessed using Student’s unpaired t-tests.

[2] = target: T3, r-N35S/M481I rURAT1 double point mutant (Rattus norvegicus, UniProt Q3ZAV1, M481I/N35S); format: cell-based
T3 construct: hURAT1 and rURAT1 are 553 amino acid proteins with 12 transmembrane segments; expressed in transfected cells; host or cells: HEK-293T
T3 sequence (Q3ZAV1 1-553 N35S/M481I): T1 sequence (Q3ZAV1 1-553 N35S) with M481I
How it was run: as §1

[3] = r-N35S, MES pH 5.5, 100 μM 14C-uric acid, read-out: IC50 (uric acid transport)

## O=c1[nH]c(=O)c2[nH]c(=O)[nH]c2[nH]1 [uric acid]
[1]
  fold increased affinity of r-N35S compared to rURAT1: no phenotype
[1]; [3]
  IC50: 2660 µM

## CCc1oc2ccccc2c1C(=O)c1cc(Br)c(O)c(Br)c1 [benzbromarone]
r-h TM1-C URAT1 chimera
  IC50: 12 ± 0.78 µM
[2]
  IC50: 9 ± 1.5 µM
[1]
  IC50: 17 ± 2.1 µM

## O=C(O)CSc1nnc(Br)n1-c1ccc(C2CC2)c2ccccc12 [lesinurad, 2-((5-bromo-4-(4-cyclopropylnaphthalen-1-yl)-4H-1,2,4-triazol-3-yl)thio)acetic acid]
r-h TM1-C URAT1 chimera; r-h TM1-C, MES pH 5.5, 100 μM 14C-uric acid, read-out: IC50 (uric acid transport)
  IC50: 17 ± 2 µM
[2]; r-N35S/M481I, MES pH 5.5, 100 μM 14C-uric acid, read-out: IC50 (uric acid transport)
  IC50: 29 ± 1.2 µM
[1]; [3]
  IC50: 57 ± 6.3 µM

## O=C1C(CC[S+]([O-])c2ccccc2)C(=O)N(c2ccccc2)N1c1ccccc1 (stereo not drawn) [sulfinpyrazone]
r-h TM1-C URAT1 chimera; r-h TM1-C, HEPES pH 7.3, 100 μM 14C-uric acid, read-out: IC50 (uric acid transport)
  IC50: 25 ± 6.7 µM
[2]; r-N35S/M481I, HEPES pH 7.3, 100 μM 14C-uric acid, read-out: IC50 (uric acid transport)
  IC50: 176 ± 44 µM
[1]
  fold increased affinity of r-N35S compared to rURAT1: 3.6 fold
[1]; r-N35S, HEPES pH 7.3, 100 μM 14C-uric acid, read-out: IC50 (uric acid transport)
  IC50: 189 ± 32 µM
